Measured values taken from patent publication US5061794A, “Cephalosporin derivatives, and antibacterial agents” (priority 1986, dated 1991).
Where two headings read alike, the source gives them in different places.

Columns and labels:
E. coli CSH(RE45) = assay: microbe, parasite or virus in culture; assay type: cell-based; settings: Escherichia coli, 16 h, read-out: Minimum Inhibitory Concentration (MIC), *E. coli CSH(RE45), lactamase-producing strain; 10^6 CFU/ml
How it was run: (§1)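 Overnight Mueller Hinton broth cultures were inoculated onto Mueller Hinton agar containing serial antibiotic concentrations at 10^6 CFU/ml. Plates were incubated at 37° C. for 16 hours, and MIC (μg/ml) was recorded.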

E. coli CSH2 (RK1) = assay: microbe, parasite or virus in culture; assay type: cell-based; settings: Escherichia coli, 16 h, read-out: Minimum Inhibitory Concentration (MIC), *E. coli CSH2 (RK1), lactamase-producing strain; 10^6 CFU/ml
How it was run: as §1

E. cloacae 963 = assay: in vitro antibacterial activity, agar plate dilution method (MIC); assay type: cell-based; settings: 10^6 CFU/ml
How it was run: as §1

E. cloacae Nek 39 = assay: as above; assay type: cell-based; settings: Enterobacter cloacae, NEK39, 16 h, read-out: Minimum Inhibitory Concentration (MIC), *E. cloacae Nek 39, lactamase-producing strain; 10^6 CFU/ml
How it was run: as §1

E. coli GN5482 = assay: as above; assay type: cell-based; settings: Escherichia coli, GN5482, 16 h
How it was run: as §1

E. coli NIHJ JC2 = assay: as above; assay type: cell-based; settings: Escherichia coli, NIHJJC2, 16 h, read-out: Minimum Inhibitory Concentration (MIC), E. coli NIHJ JC2, 10^6 CFU/ml, 37° C.
How it was run: as §1

K. oxytoca GN10650 = assay: as above; assay type: cell-based; settings: Klebsiella oxytoca, GN10650, 16 h, read-out: Minimum Inhibitory Concentration (MIC), *K. oxytoca GN10650, lactamase-producing strain; 10^6 CFU/ml
How it was run: as §1

K. pneumoniae No. 42 = assay: as above; assay type: cell-based; settings: Klebsiella pneumoniae, NO.42, 16 h, read-out: Minimum Inhibitory Concentration (MIC), *K. pneumoniae No. 42, lactamase-producing strain; 10^6 CFU/ml
How it was run: as §1

K. pneumoniae PCI-602 = assay: as above; assay type: cell-based; settings: Klebsiella pneumoniae, PCI602, 16 h, 10^6 CFU/ml
How it was run: as §1

M. morganii GN5407 = assay: as above; assay type: cell-based; settings: Morganella morganii, GN5407, 16 h, read-out: Minimum Inhibitory Concentration (MIC), *M. morganii GN5407, lactamase-producing strain; 10^6 CFU/ml
How it was run: as §1

P. vulgaris HX-19 = assay: as above; assay type: cell-based; settings: Proteus vulgaris, HX19, 16 h, P. vulgaris HX-19; 10^6 CFU/ml; read-out: Minimum Inhibitory Concentration (MIC)
How it was run: as §1

P. vulgaris No. 33 = assay: as above; assay type: cell-based; settings: Proteus vulgaris, NO.33, 16 h, read-out: Minimum Inhibitory Concentration (MIC), *P. vulgaris No. 33, lactamase-producing strain; 10^6 CFU/ml
How it was run: as §1

S. aureus 209P NIHJ-JC1 = assay: as above; assay type: cell-based; settings: Staphylococcus aureus, 16 h
How it was run: as §1

S. marcescens IAM 1184 = assay: as above; assay type: cell-based; settings: Serratia marcescens, IAM1184, 16 h, read-out: Minimum Inhibitory Concentration (MIC)
How it was run: as §1

S. marcescens No. 16-2 = assay: as above; assay type: cell-based; settings: Serratia marcescens, NO.162, 16 h
How it was run: as §1

Ps. aeruginosa AK 109 = assay: as above; assay type: cell-based, Pseudomonas aeruginosa; settings: Pseudomonas aeruginosa, AK109, 16 h, read-out: Minimum Inhibitory Concentration (MIC)
How it was run: as §1

Ps. aeruginosa AKR17 = assay: as above; assay type: cell-based, Pseudomonas aeruginosa; settings: Pseudomonas aeruginosa, read-out: Minimum Inhibitory Concentration (MIC)
How it was run: as §1

Ps. aeruginosa IF03445 = assay: as above; assay type: cell-based, Pseudomonas aeruginosa; settings: Pseudomonas aeruginosa, 10^6 CFU/ml
How it was run: as §1

Ps. cepacia 23 = assay: as above; assay type: cell-based, Pseudomonas cepacia; settings: read-out: Minimum Inhibitory Concentration (MIC)
How it was run: as §1

A. calcoaceticus No. 4 = assay: as above; assay type: cell-based, Acinetobacter calcoaceticus; settings: Acinetobacter calcoaceticus, NO.4, 16 h, 10^6 CFU/ml
How it was run: as §1

[1] = Enterobacter cloacae, 963, 16 h, read-out: Minimum Inhibitory Concentration (MIC), E. cloacae 963
[2] = read-out: Minimum Inhibitory Concentration (MIC)
[3] = read-out: Minimum Inhibitory Concentration (MIC), K. pneumoniae PCI-602
[4] = read-out: Minimum Inhibitory Concentration (MIC), *S. marcescens No. 16-2, lactamase-producing strain, 10^6 CFU/ml
[5] = Ps. aeruginosa AK 109, 10^6 CFU/ml
[6] = 16 h, Ps. aeruginosa AKR17, 10^6 CFU/ml
[7] = IF03445, 16 h, read-out: Minimum Inhibitory Concentration (MIC), Ps. aeruginosa IF03445
[8] = Burkholderia cepacia, 16 h, Ps. cepacia 23, 10^6 CFU/ml
[9] = S. aureus 209P NIHJ-JC1, 10^6 CFU/ml, 37° C., 16 hours, read-out: Minimum Inhibitory Concentration (MIC)
[10] = 16 h, Ps. aeruginosa IF03445, read-out: Minimum Inhibitory Concentration (MIC)
[11] = A. calcoaceticus No. 4, read-out: Minimum Inhibitory Concentration (MIC)
[12] = read-out: Minimum Inhibitory Concentration (MIC), *E. coli GN5482, lactamase-producing strain, 10^6 CFU/ml

SMILES | MIC (E. coli CSH(RE45)) | MIC (E. coli CSH2 (RK1)) | MIC (E. cloacae 963; [1]) | MIC (E. cloacae Nek 39) | MIC (E. coli GN5482; [2]) | MIC (E. coli NIHJ JC2) | MIC (K. oxytoca GN10650) | MIC (K. pneumoniae No. 42) | MIC (K. pneumoniae PCI-602; [3]) | MIC (M. morganii GN5407) | MIC (P. vulgaris HX-19) | MIC (P. vulgaris No. 33) | MIC (S. marcescens IAM 1184) | MIC (Ps. aeruginosa AK 109; [5]) | MIC (Ps. aeruginosa AKR17; [6]) | MIC (Ps. aeruginosa IF03445; [7]) | MIC (S. marcescens No. 16-2; [2]) | MIC (Ps. cepacia 23; Burkholderia cepacia, 23, 16 h) | MIC (A. calcoaceticus No. 4; [11]) | MIC (S. aureus 209P NIHJ-JC1; [2]) | other results
C#CCO/N=C(\C(=O)N[C@@H]1C(=O)N2C(C(=O)O)=C(CSc3nnc(-c4ccc(O)c(O)c4)o3)CS[C@H]12)c1csc(N)n1 [compound 9, sodium 7β-[2-(2-aminothiazol-4-yl)-2-(2-propynyloxyimino)acetamido]-3-[5-(3,4-dihydroxyphenyl)-1,3,4-oxadiazol-2-yl]thiomethyl-3-cephem-4carboxylate] | 0.0125 µg/mL | 0.0125 µg/mL | 0.0125 µg/mL | 0.1 µg/mL | 0.39 µg/mL | 0.1 µg/mL | 6.25 µg/mL | 0.025 µg/mL | 0.0125 µg/mL | 0.0125 µg/mL | < 0.006 µg/mL | 0.025 µg/mL | 0.0125 µg/mL | 0.2 µg/mL | > 100 µg/mL | 1.56 µg/mL | – | – | – | – | MIC (S. aureus 209P NIHJ-JC1; read-out: Minimum Inhibitory Concentration (MIC), S. aureus 209P NIHJ-JC1, 10^6 CFU/ml, 37° C., 16 hours): 0.78 µg/mL; MIC (S. marcescens No. 16-2; [4]): 6.25 µg/mL; MIC (Ps. cepacia 23; [8]): 0.05 µg/mL; MIC (A. calcoaceticus No. 4; read-out: Minimum Inhibitory Concentration (MIC), A. calcoaceticus No. 4): 0.1 µg/mL
CO/N=C(\C(=O)N[C@@H]1C(=O)N2C(C(=O)O)=C(CSc3nc(-c4ccccc4)cs3)CS[C@H]12)c1csc(N)n1 [compound 9, sodium 7μ-[2-(2-aminothiazol-4-yl)-2-methoxyiminoacetamido]-3-(4-phenylthiazol-2-yl)-thiomethyl-3-cephem-4-carboxylate, reference compound] | 0.78 µg/mL | 0.39 µg/mL | 1.56 µg/mL | 3.12 µg/mL | 0.39 µg/mL | 0.78 µg/mL | 3.12 µg/mL | 1.56 µg/mL | < 0.006 µg/mL | 0.78 µg/mL | < 0.006 µg/mL | 0.78 µg/mL | 0.39 µg/mL | 25 µg/mL | > 100 µg/mL | – | 3.12 µg/mL | 3.12 µg/mL | 25 µg/mL | – | MIC (S. aureus 209P NIHJ-JC1; [9]): 0.1 µg/mL; MIC (Ps. aeruginosa IF03445; [10]): 25 µg/mL
Nc1nc(/C(=N/OCC(=O)O)C(=O)N[C@@H]2C(=O)N3C(C(=O)O)=C(CSc4nnc(-c5ccc(O)c(O)c5)o4)CS[C@H]23)cs1 [compound 10, disodium 78-[2-(2-aminothiazol-4-yl)-2-carboxylatemethoxyiminoacetamido]-3-[5-(3,4-dihydroxyphenyl)-1,3,4-oxadiazol-2-yl]thiomethvl-3-cephem-4-carboxylate] | 0.0125 µg/mL | < 0.006 µg/mL | 0.025 µg/mL | 0.05 µg/mL | 0.39 µg/mL | 0.05 µg/mL | 0.1 µg/mL | 0.025 µg/mL | < 0.006 µg/mL | 0.025 µg/mL | < 0.006 µg/mL | 0.025 µg/mL | 0.0125 µg/mL | 0.2 µg/mL | – | 0.39 µg/mL | 0.39 µg/mL | – | 0.05 µg/mL | 12.5 µg/mL | MIC (Ps. aeruginosa AKR17; AKR17, 16 h): 12.5 µg/mL; MIC (Ps. cepacia 23; [8]): < 0.006 µg/mL
CO/N=C(\C(=O)N[C@@H]1C(=O)N2C(C(=O)O)=C(CSc3nc(-c4ccc(O)cc4)cs3)CS[C@H]12)c1csc(N)n1 [compound 10, sodium 7β-[2-(2-aminothiazol-4-yl)-2-methoxyiminoacetamido]-3-[4-(4-hydroxyphenyl)thiazol-2-yl]thiomethyl-3-cephem-4-carboxylate, reference compound] | 0.78 µg/mL | 0.39 µg/mL | 1.56 µg/mL | 3.12 µg/mL | 0.39 µg/mL | 0.78 µg/mL | 3.12 µg/mL | 1.56 µg/mL | < 0.006 µg/mL | 0.78 µg/mL | < 0.006 µg/mL | 0.78 µg/mL | 0.78 µg/mL | – | > 100 µg/mL | 6.25 µg/mL | 3.12 µg/mL | 3.12 µg/mL | 50 µg/mL | – | MIC (S. aureus 209P NIHJ-JC1; [9]): 0.2 µg/mL; MIC (Ps. aeruginosa AK 109): 12.5 µg/mL
CC(C)(O/N=C(\C(=O)N[C@@H]1C(=O)N2C(C(=O)O)=C(CSc3nc(-c4ccccc4)cs3)CS[C@H]12)c1csc(N)n1)C(=O)O [compound 11, disodium 7β-[2-(2-aminothiazol-4-yl)-2-(1-carboxylate-1-methylethoxyimino)acetamido]-3-(4-phenylthiazol-2-yl) thiomethyl-3-cephem-4-carboxylate, reference compound] | 1.56 µg/mL | 1.56 µg/mL | – | 12.5 µg/mL | – | 3.12 µg/mL | 3.12 µg/mL | 3.12 µg/mL | 0.1 µg/mL | 1.56 µg/mL | < 0.006 µg/mL | 0.78 µg/mL | 1.56 µg/mL | 50 µg/mL | > 100 µg/mL | 12.5 µg/mL | – | 12.5 µg/mL | > 100 µg/mL | 3.12 µg/mL | MIC (E. cloacae 963; Enterobacter cloacae, 16 h, E. cloacae 963, read-out: Minimum Inhibitory Concentration (MIC)): 6.2 µg/mL; MIC (E. coli GN5482; [12]): 1.56 µg/mL; MIC (S. marcescens No. 16-2; [4]): 6.25 µg/mL
CC(C)(O/N=C(\C(=O)N[C@@H]1C(=O)N2C(C(=O)O)=C(CSc3nc(-c4ccc(O)cc4)cs3)CS[C@H]12)c1csc(N)n1)C(=O)O [compound 12, disodium 7β-[2-(2-aminothiazol-4-yl)-2-(1-carboxylate-1-methylethoxyimino)acetamido]-3-[4-(4-hydroxyphenyl)thiazol-2-yl]thiomethyl-3-cephem-4-carboxylate, reference compound] | 1.56 µg/mL | 1.56 µg/mL | 3.12 µg/mL | 12.5 µg/mL | – | 3.12 µg/mL | 1.56 µg/mL | 3.12 µg/mL | – | 1.56 µg/mL | < 0.006 µg/mL | 0.39 µg/mL | 0.78 µg/mL | 25 µg/mL | > 100 µg/mL | – | 12.5 µg/mL | 3.12 µg/mL | 100 µg/mL | 3.12 µg/mL | MIC (E. coli GN5482; [12]): 1.56 µg/mL; MIC (K. pneumoniae PCI-602; K. pneumoniae PCI-602, read-out: Minimum Inhibitory Concentration (MIC)): 0.05 µg/mL; MIC (Ps. aeruginosa IF03445; [10]): 50 µg/mL
